Experimental data: ChEMBL document CHEMBL3872234, “Polyfluorinated salicylic acid derivatives as analogs of known drugs: Synthesis, molecular docking and biological evaluation” (Bioorg Med Chem, 2017)
Where “and” joins values, the source holds several entries; their conditions need not be identical. Equal values may be shown once.

What was measured:
[1] = Acute toxicity in CD-1 mouse assessed as viability at 150 mg/kg, ip measured up to 14 days; assay type: organism-based; details: in vivo
[2] = target: T1, Prostaglandin G/H synthase 1 (Ovis aries) (UniProt P05979); assay: Inhibition of ovine COX-1 assessed as reduction in PGG2 production using ADHP as substrate at 200 uM incubated for 5 mins followed by substrate addition measured after 2 mins by fluorescence assay
T1 sequence (whole entry): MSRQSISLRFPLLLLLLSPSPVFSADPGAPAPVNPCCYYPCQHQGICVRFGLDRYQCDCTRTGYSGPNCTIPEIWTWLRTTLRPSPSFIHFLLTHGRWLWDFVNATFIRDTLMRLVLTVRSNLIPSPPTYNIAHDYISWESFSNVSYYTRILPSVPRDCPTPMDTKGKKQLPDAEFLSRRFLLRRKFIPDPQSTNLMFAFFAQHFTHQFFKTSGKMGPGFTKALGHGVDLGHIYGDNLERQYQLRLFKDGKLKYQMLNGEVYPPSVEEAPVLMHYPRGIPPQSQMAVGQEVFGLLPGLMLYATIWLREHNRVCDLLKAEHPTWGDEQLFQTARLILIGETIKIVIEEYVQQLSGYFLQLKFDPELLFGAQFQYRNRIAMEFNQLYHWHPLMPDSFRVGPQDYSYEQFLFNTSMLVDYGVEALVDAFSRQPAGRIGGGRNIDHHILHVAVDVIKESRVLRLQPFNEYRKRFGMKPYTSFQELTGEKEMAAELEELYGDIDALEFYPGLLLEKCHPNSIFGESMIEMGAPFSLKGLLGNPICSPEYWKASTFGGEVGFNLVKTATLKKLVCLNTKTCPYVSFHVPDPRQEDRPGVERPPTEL

[3] = Acute toxicity in CD-1 mouse assessed as viability at 50 mg/kg, ip measured up to 14 days; assay type: organism-based; details: in vivo, read-out: Activity
[4] = tested on: Rattus norvegicus; assay: Analgesic activity in rat assessed as latent period prolongation at 25 mg/kg, ip measured after 1 hr by hot plate test; assay type: functional
[5] = Acute toxicity in CD-1 mouse assessed as viability at 300 mg/kg, ip measured up to 14 days; assay type: organism-based; details: in vivo
[6] = target: T1, Prostaglandin G/H synthase 1 (Ovis aries); assay: Inhibition of ovine COX-1 assessed as reduction in PGG2 production using ADHP as substrate at 2 uM incubated for 5 mins followed by substrate addition measured after 2 mins by fluorescence assay
[7] = Acute toxicity in CD-1 mouse assessed as viability at 100 mg/kg, ip measured up to 14 days; assay type: organism-based; details: in vivo
[8] = tested on: Rattus norvegicus; assay: Antiinflammatory activity in rat carrageenan-induced paw edema model assessed as inhibition of paw swelling at 25 mg/kg, ip administered 30 mins prior to carrageenan challenge measured after 3 hrs; assay type: functional
[9] = tested on: Rattus norvegicus; assay: Antiinflammatory activity in rat carrageenan-induced paw edema model assessed as inhibition of paw swelling at 25 mg/kg, ip administered 30 mins prior to carrageenan challenge measured after 5 hrs; assay type: functional
[10] = tested on: Rattus norvegicus; assay: Antiinflammatory activity in rat carrageenan-induced paw edema model assessed as inhibition of paw swelling at 50 mg/kg, ip administered 30 mins prior to carrageenan challenge measured after 5 hrs; assay type: functional
[11] = Permeability of the compound at pH 5 after 2 hrs by PAMPA; assay type: ADME; details: read-out: Peff
[12] = Permeability of the compound at pH 7.4 after 2 hrs by PAMPA; assay type: ADME; details: read-out: Peff
[13] = Drug level in prisma HT buffer treated with 2-acetoxy-3,4,5,6-tetrafluorobenzoic acid at pH 5 to 7.4 by UV absorbance assay; assay type: toxicity
[14] = tested on: Rattus norvegicus; assay: Antiinflammatory activity in rat carrageenan-induced paw edema model assessed as inhibition of paw swelling at 50 mg/kg, ip administered 30 mins prior to carrageenan challenge measured after 3 hrs; assay type: functional
[15] = Acute toxicity in CD-1 mouse assessed as viability at 75 mg/kg, ip measured up to 14 days; assay type: organism-based; details: in vivo, read-out: Activity
[16] = Permeability of the compound at pH 6.2 after 2 hrs by PAMPA; assay type: ADME; details: read-out: Peff
[17] = Drug level in prisma HT buffer treated with 2-acetoxy-3,4,5-trifluorobenzoic acid at pH 5 to 7.4 by UV absorbance assay; assay type: toxicity

Structure (SMILES)	survival at 336 h ([1]; read-out: Activity) [%]	Activity [4]	survival at 336 h ([5]; read-out: Activity) [%]	inhibition [6]	inhibition in vivo at 25 mg/kg [8] [%]	inhibition in vivo at 25 mg/kg [9] [%]	further results
CC(=O)Oc1cc(F)c(F)cc1C(=O)O	100						
CC(=O)Oc1c(C(=O)O)cc(F)c(F)c1F	70	71.2%	0	35%			inhibition [2]: 18%; survival at 336 h [3]: 100%
O=C(O)c1ccc(F)c(F)c1O	66		33				survival at 336 h ([7]; read-out: Activity): 66%
CC(=O)Oc1c(F)cc(F)c(F)c1C(=O)O		86.5%			37.3	32.7	
O=C(O)c1c(O)c(F)c(F)c(F)c1F [listing 1 of 2 here]		143.2%	0			33.1	inhibition in vivo at 50 mg/kg [10]: 56.5%; Papp at 2 h [11]: 18.6 ×10⁻⁶ cm/s; Papp at 2 h [12]: 0.1 ×10⁻⁶ cm/s; Drug metabolism [13]: Metabolite_Notdetected; inhibition in vivo at 50 mg/kg [14]: 64%; survival at 336 h [15]: 66%; Papp at 2 h [16]: 0.5 ×10⁻⁶ cm/s
CC(=O)Oc1c(C(=O)O)ccc(F)c1F		98.8%	33			35.3	
O=C(O)c1cc(F)c(F)c(F)c1O		178.1%	0				inhibition in vivo at 50 mg/kg [10]: 46.9%; Drug metabolism [17]: Metabolite_Notdetected; inhibition in vivo at 50 mg/kg [14]: 46.7%
COC(=O)c1c(O)c(F)c(F)c(F)c1F	90		0	47%			inhibition [2]: 48%; survival at 336 h [3]: 100%
O=C(O)Cc1ccccc1Nc1c(Cl)cccc1Cl [DICLOFENAC]		56 - 102.3%			64.4	54.4	
COc1c(F)c(F)c(F)c(F)c1C(=O)O		100.8%		48%	53.8	46.9	inhibition [2]: 64%
O=C(O)c1c(O)c(F)c(F)c(F)c1F [listing 2 of 2 here]				34% and 59%			inhibition [2]: 39% and 31%
CC(=O)Oc1c(F)c(F)c(F)c(F)c1C(=O)O	80	83.2%	0		42.9	56.8	inhibition in vivo at 50 mg/kg [10]: 45.1%; survival at 336 h [3]: 100%; inhibition in vivo at 50 mg/kg [14]: 65.6%
O=C([O-])c1c(O)c(F)c(F)c(F)c1F.[Na+]							Papp at 2 h [11]: 22.1 ×10⁻⁶ cm/s; Papp at 2 h [12]: 0.1 ×10⁻⁶ cm/s; Papp at 2 h [16]: 1.8 ×10⁻⁶ cm/s
O=C(O)c1c(O)c(F)cc(F)c1F	66	60.3%			47	41.7	
COC(=O)c1cc(F)c(F)c(F)c1O	100		0				survival at 336 h ([7]; read-out: Activity): 100%; inhibition in vivo at 50 mg/kg [14]: 40.3%
COc1c(C(=O)O)cc(F)c(F)c1F	80	73.2%	0	< 10%			inhibition in vivo at 50 mg/kg [10]: 30%; survival at 336 h [3]: 100%; inhibition in vivo at 50 mg/kg [14]: 40%
O=C(O)c1cc(F)c(F)cc1O	66	60.6%	33				survival at 336 h ([7]; read-out: Activity): 100%
O=C([O-])c1cc(F)c(F)c(F)c1O.[Na+]	66	66.8%					
CC(=O)Oc1ccccc1C(=O)O [ASPIRIN]		57.9%		31%	30.6 to 56.2	29.4 to 44.9	inhibition [2]: 36%; Papp at 2 h [11]: 5.1 ×10⁻⁶ cm/s; Papp at 2 h [12]: 4.7 ×10⁻⁶ cm/s; survival at 336 h [1]: 100%; survival at 336 h [5]: 33%; survival at 336 h [7]: 100%
